Measured values: patent publication US8629101B2, “Cholesterol derivatives of inhibitors of viral fusion” (priority 2007, dated 2014)
Where a SMILES comes first, the peptide text is derived from it. The star is where a group is joined. X1 = CC(C)CCC[C@@H](C)[C@H]1CC[C@H]2[C@@H]3CC=C4C[C@@H](OC(=O)C*)CC[C@]4(C)[C@H]3CC[C@]12C

Tests used:
[1] = test system: HIV-1 (HXB2); format: cell-based; conditions: read-out: IC50 antiviral activity
Description: The antiviral activity of a peptide from the membrane-proximal external region (MPER) of gp41, which also includes the epitope of monoclonal antibody (MAb) 2F5, […] […] Accordingly, when peptide […] […] Moreover, the nature of the lipid was important, since a bis-Lys(N^ε-Palmitoyl) group was ineffective. Details of the assay used can be found in Joyce et al, J. Biol Chem., 2002, 277, 45811-45820.

[2] = test system: HIV-HXB2
[3] = test system: HIV-HXB2; assay: pre-incubation of peptide with P4-2/R5 cells with/without wash, then HIV-HXB2 infection; format: cell-based, HIV-1; conditions: with wash versus no wash
Description: After 48 h, the antiviral activities of the residual peptides that survive the washing steps were determined by measuring the f3-galactosidase activities within lysed cells as described above.

[4] = pharmacokinetics after intraperitoneal injection into the mouse; format: in vivo; conditions: ip
Description: Effect of lipid derivatization on the pharmacokinetic properties of C34-chol. In addition to providing improved antiviral potency, derivatization with cholesterol also extends the half-life of the peptide in vivo.

[5] = test system: multiple HIV-1 isolates; assay: single-cycle infectivity assay across the panel of viral strains; conditions: variety of viral strains
Description: HIV-1 Infectivity Assay (31). P4-2/R5 cells (HeLa cells expressing endogenous CXCR4 and stably transfected to express CD4 and CCR5 which also contain an integrated β-galactosidase reporter gene under control of an HIV LTR promoter) maintained in phenol red-free Dulbecco's modified Eagle's medium, 10% fetal bovine serum, 1% penicillin/streptomycin were seeded in 96-well plates at 2.5×10^3 cells/well and infected the following day with the HXB2 strain (and a variety of other strains in some cases) of HIV-1 (Advanced Biotechnology Inc., Bethesda, Md.) in the presence of titrations of the test inhibitory peptides at 37° C. After 48 h incubation with both virus and inhibitory peptides, cells were lysed and β-galactosidase was detected using Gal Screen™ chemiluminescent substrate (Applied Biosystems, Foster City, Calif.) according to the manufacturer's instructions. Data were obtained using a Dynex luminometer and IC50 values were calculated by KaleidaGraph.

Work on `CC(=O)N[C@@H](CCC(=O)O)C(=O)N[C@@H](CC(C)C)C(=O)N[C@@H](CC(C)C)C(=O)N[C@@H](CCC(=O)O)C(=O)N[C@@H](CC(C)C)C(=O)N[C@@H](CC(=O)O)C(=O)N[C@@H](CCCCN)C(=O)N[C@@H](Cc1c[nH]c2ccccc12)C(=O)N[C@@H](C)C(=O)N[C@@H](CO)C(=O)N[C@@H](CC(C)C)C(=O)N[C@@H](Cc1c[nH]c2ccccc12)C(=O)N[C@@H](CSCC(=O)O[C@H]1CC[C@@]2(C)C(=CC[C@H]3[C@@H]4CC[C@H]([C@H](C)CCCC(C)C)[C@@]4(C)CC[C@@H]32)C1)C(N)=O` (Ac-ELLELDKWASLWC(X1)-NH2) yielded an IC50 [1] of 5850 nM.
In the case of enfuvirtide, the IC50 ([2]; read-out: IC50 viral infectivity, mean ± SEM of three independent experiments (Table 2)) is reported as 0.692 ± 0.245 nM.
With `CC[C@H](C)[C@H](NC(=O)[C@H](CC(C)C)NC(=O)[C@H](CO)NC(=O)[C@H](Cc1c[nH]cn1)NC(=O)[C@@H](NC(=O)[C@H](CC(C)C)NC(=O)[C@H](CO)NC(=O)[C@@H](NC(=O)[C@H](Cc1ccc(O)cc1)NC(=O)[C@H](CC(N)=O)NC(=O)[C@H](CC(N)=O)NC(=O)[C@@H](NC(=O)[C@H](CCC(=O)O)NC(=O)[C@H](CCCNC(=N)N)NC(=O)[C@H](CC(=O)O)NC(=O)[C@H](Cc1c[nH]c2ccccc12)NC(=O)[C@H](CCC(=O)O)NC(=O)[C@H](CCSC)NC(=O)[C@H](Cc1c[nH]c2ccccc12)NC(=O)CNC(=O)[C@H](CO)NC(=O)CNC(=O)[C@H](CSCC(=O)O[C@H]1CC[C@@]2(C)C(=CC[C@H]3[C@@H]4CC[C@H]([C@H](C)CCCC(C)C)[C@@]4(C)CC[C@@H]32)C1)NC(C)=O)[C@@H](C)CC)[C@@H](C)O)[C@@H](C)CC)C(=O)N[C@@H](CCC(=O)O)C(=O)N[C@@H](CCC(=O)O)C(=O)N[C@@H](CO)C(=O)N[C@@H](CCC(N)=O)C(=O)N[C@@H](CC(N)=O)C(=O)N[C@@H](CCC(N)=O)C(=O)N[C@@H](CCC(N)=O)C(=O)N[C@@H](CCC(=O)O)C(=O)N[C@@H](CCCCN)C(=O)N[C@@H](CC(N)=O)C(=O)N[C@@H](CCC(=O)O)C(=O)N[C@@H](CCC(N)=O)C(=O)N[C@@H](CCC(=O)O)C(=O)N[C@@H](CC(C)C)C(=O)N[C@@H](CC(C)C)C(N)=O` [Chol-C34] the “decrease of antiviral activity compared to underivatized C34” value ([2]; cholesterol at the N-terminus) was 50 fold.
For `CC[C@H](C)[C@H](NC(=O)[C@H](CC(C)C)NC(=O)[C@H](CO)NC(=O)[C@H](Cc1c[nH]cn1)NC(=O)[C@@H](NC(=O)[C@H](CC(C)C)NC(=O)[C@H](CO)NC(=O)[C@@H](NC(=O)[C@H](Cc1ccc(O)cc1)NC(=O)[C@H](CC(N)=O)NC(=O)[C@H](CC(N)=O)NC(=O)[C@@H](NC(=O)[C@H](CCC(=O)O)NC(=O)[C@H](CCCNC(=N)N)NC(=O)[C@H](CC(=O)O)NC(=O)[C@H](Cc1c[nH]c2ccccc12)NC(=O)[C@H](CCC(=O)O)NC(=O)[C@H](CCSC)NC(=O)[C@H](Cc1c[nH]c2ccccc12)NC(C)=O)[C@@H](C)CC)[C@@H](C)O)[C@@H](C)CC)C(=O)N[C@@H](CCC(=O)O)C(=O)N[C@@H](CCC(=O)O)C(=O)N[C@@H](CO)C(=O)N[C@@H](CCC(N)=O)C(=O)N[C@@H](CC(N)=O)C(=O)N[C@@H](CCC(N)=O)C(=O)N[C@@H](CCC(N)=O)C(=O)N[C@@H](CCC(=O)O)C(=O)N[C@@H](CCCCN)C(=O)N[C@@H](CC(N)=O)C(=O)N[C@@H](CCC(=O)O)C(=O)N[C@@H](CCC(N)=O)C(=O)N[C@@H](CCC(=O)O)C(=O)N[C@@H](CC(C)C)C(=O)N[C@@H](CC(C)C)C(=O)NCC(=O)N[C@@H](CO)C(=O)NCC(=O)N[C@@H](CSCC(=O)O[C@H]1CC[C@@]2(C)C(=CC[C@H]3[C@@H]4CC[C@H]([C@H](C)CCCC(C)C)[C@@]4(C)CC[C@@H]32)C1)C(N)=O` [Peptide C34-Chol], the IC50 fold change [3] was 7 fold, the “plasma concentration at 24 h as multiple of the measured IC50” value ([4]; […], 24 h, versus IC50 7 pM) was over 500 fold and the AUC(0-t) ([4]; plasma, 3.5 mg/kg) was 11.5 µM·h. It also gave a Cmax ([4]; plasma, 3.5 mg/kg) of 3100 nM, a Tmax ([4]; plasma, 3.5 mg/kg) of 4 h and a CL/F ([4]; plasma, 3.5 mg/kg, read-out: CI/F) of 0.6 mL/min/kg. For the same compound, the level at time molar at 24 h ([4]; plasma, intraperitoneal, 3.5 mg/kg, 24 h, read-out: plasma concentration still detectable after 24 h) was about 60 nM, the “increase of antiviral potency over C34 and C34-Aceta” value [2] was 50 fold and the “potency relative to enfuvirtide/FUZEON” value [2] was about 100 fold. The “breadth of antiviral response” value [5] was “comparable IC50 in all strains” and the “potency relative to underivatized or cys-alkylated C34 across the whole panel” value [5] was about 50 fold.
For `CCCCCCCCCCCCCCCC(=O)NCCCC[C@H](NC(=O)CNC(=O)[C@H](CO)NC(=O)CNC(=O)[C@H](CC(C)C)NC(=O)[C@H](CC(C)C)NC(=O)[C@H](CCC(=O)O)NC(=O)[C@H](CCC(N)=O)NC(=O)[C@H](CCC(=O)O)NC(=O)[C@H](CC(N)=O)NC(=O)[C@H](CCCCN)NC(=O)[C@H](CCC(=O)O)NC(=O)[C@H](CCC(N)=O)NC(=O)[C@H](CCC(N)=O)NC(=O)[C@H](CC(N)=O)NC(=O)[C@H](CCC(N)=O)NC(=O)[C@H](CO)NC(=O)[C@H](CCC(=O)O)NC(=O)[C@H](CCC(=O)O)NC(=O)[C@@H](NC(=O)[C@H](CC(C)C)NC(=O)[C@H](CO)NC(=O)[C@H](Cc1c[nH]cn1)NC(=O)[C@@H](NC(=O)[C@H](CC(C)C)NC(=O)[C@H](CO)NC(=O)[C@@H](NC(=O)[C@H](Cc1ccc(O)cc1)NC(=O)[C@H](CC(N)=O)NC(=O)[C@H](CC(N)=O)NC(=O)[C@@H](NC(=O)[C@H](CCC(=O)O)NC(=O)[C@H](CCCNC(=N)N)NC(=O)[C@H](CC(=O)O)NC(=O)[C@H](Cc1c[nH]c2ccccc12)NC(=O)[C@H](CCC(=O)O)NC(=O)[C@H](CCSC)NC(=O)[C@H](Cc1c[nH]c2ccccc12)NC(C)=O)[C@@H](C)CC)[C@@H](C)O)[C@@H](C)CC)[C@@H](C)CC)C(N)=O` [Peptide C34-Pam], the “antiviral activity relative to underivatized C34” value [2] was “comparable activity to underivatized C34”.
